For data set [1], the system named is SSc fibroblasts. The data set is described as follows: Hydroxyproline secretion by SSc fibroblasts treated with glyburide or parthenolide. The conditions noted are these: 100 μM glyburide or 10 μM parthenolide; media of 24 h and further 24 h.
Protocol: SSc fibroblasts were cultured in 5 ml of media with 100 μM glyburide (G) or 10 μM parthenolide (P). After 24 h the media was collected and the fibroblasts given an additional 5 ml of media with 100 μM glyburide or 10 μM parthenolide and cultured for a further 24 h. Media from both time points was assayed for hydroxyproline. Three independent experiments were performed in and assayed in triplicate. Data is presented as means±SEM. G=glyburide, P=parthenolide.
SSc fibroblasts were treated for 24 h with 100 μM Glyburide or 10 μM Parthenolide. The media was replaced with fresh after 24 h with 100 μM Glyburide or 10 μM Parthenolide and cultured for an additional 24 h. The culture media was assayed for hydroxyproline.
Data set [2] relates to interleukin-1β. The conditions noted are these: cited from earlier work.
The test system of data set [3] is SSc dermal fibroblasts. The data set is described as follows: IL-1β secretion by SSc dermal fibroblasts (ELISA of media). The conditions noted are these: SSc dermal fibroblasts (n=4), 20 μM inhibitor, 48 h, untreated 41.1±5.6. Type of data set: cell-based, human. The procedure: (§1) Normal human dermal fibroblasts (n=4) were purchased from the Coriell Institute (Camden, N.J.) and normal lung fibroblasts (n=3) were obtained from the University of Pittsburgh. Normal and SSc dermal fibroblasts (750,000 cells/dish) were cultured in DMEM (Mediatech Inc., Manassas Va.) supplemented with 10% FBS (Mediatech) and 1% penicillin/streptomycin (Mediatech). Protein lysates were collected for western blotting and media was collected for ELISA and hydroxyproline assays. SSc fibroblasts were treated with 20 μM caspase-1 inhibitor, Benzyloxycarbonyl-Tyr-Val-Ala-Asp(OMe)-fluoromethylketone (Z-YVAD(OMe)-FMK; Enzo Life Sciences, Plymouth Meeting Pa.) for 48 h. Fibroblasts from NLRP3−/−, and ASC−/− and C57BL/6 mice (Jackson Laboratories, Bar Harbor Me.) were established from skin and were treated with 1 μM bleomycin and 20 μM Z-YVAD(OMe)-FMK for 48 h.
(§2) Media from SSc and normal fibroblasts were assayed by ELISA for IL-1β (Thermo Scientific, Rockford Ill.) and IL-18 (MBL, Woburn Mass.) according to the manufacturer's recommendations. […] The sensitivity of the IL-1β ELISA was 2.6 pg/ml and the sensitivity of the IL-18 was 12 pg/ml.
(§3) 80% confluent fibroblasts were cultured in serum free Opti-MEM and transfected with siRNA targeting caspase-1 (Santa Cruz) for 48 h, with an additional transfection of the siRNA duplex after 24 h. […]

For data set [4], the system named is SSc lung fibroblasts. The data set can be described thus: IL-1β secretion by SSc lung fibroblasts (ELISA of media). Type of data set: cell-based, human. Conditions: SSc lung fibroblasts (n=3), 20 μM inhibitor, 48 h; untreated 19.7±0.4. How it is done: as §1, §2
(In general: An ELISA detects its analyte on a solid surface through an enzyme-linked reagent.)

Data set [5] relates to SSc dermal fibroblasts. The data set can be described thus: IL-18 secretion by SSc dermal fibroblasts (ELISA of media). Format: cell-based, human. Conditions: SSc dermal fibroblasts (n=4), 20 μM inhibitor, 48 h; untreated 23.9±1.0. How it is done: as §1, §2, §3
Data set [6] deals with SSc lung fibroblasts. The data set can be described thus: IL-18 secretion by SSc lung fibroblasts (ELISA of media). The conditions noted are these: SSc lung fibroblasts (n=3), 20 μM inhibitor, 48 h; untreated 743.9±6.4. Format: cell-based, human. The procedure: as §1, §2
Data set [7] concerns SSc dermal fibroblasts. The data set can be described thus: Hydroxyproline (total collagen) secretion by SSc dermal fibroblasts. Conditions: 20 μM inhibitor, 48 h, untreated 18.73±2.33. Type of data set: cell-based, human. How it is done:
as §1
(§4) Total collagen secreted into media was measured by hydroxyproline (Woessner, 1961, Arch Biochem Biophys 93:440-7). Absorbances were read in a spectrophotometer at 550 nm and the concentration of hydroxyproline was determined against a standard curve of hydroxyproline.
as §3

Data set [8] relates to SSc lung fibroblasts. The data set can be described thus: Hydroxyproline (total collagen) secretion by SSc lung fibroblasts. Format: cell-based, human. Conditions: 20 μM inhibitor, 48 h, untreated 216.1±18.5. The procedure:
as §1, §4

Data set [9] relates to SSc dermal fibroblasts. The data set is described as follows: Western blot of secreted COL1A1 and COL3A1, SSc dermal fibroblasts. Conditions: 48 h. Format: cell-based, human. How it is done: as §1
(§5) 30 μl of media was size fractionated on a 5% SDS polyacrylamide gel (Invitrogen, Carlsbad Calif.) and the proteins transferred to a PVDF membrane (Invitrogen). Non-specific binding sites were blocked and then probed with rabbit-anti-human COL1A1, COL3A1, or α-SMA (Santa Cruz Biotechnologies, Santa Cruz Calif.) overnight at 4° C. The membrane was washed and incubated with goat anti-rabbit-HRP (1:5000) (Jackson Immunoresearch, West Grove Pa.). […] The intensity of the bands was measured by ImageJ (http://rsbweb dot nih dot gov/ij/).
(In general: A western blot detects proteins with antibodies after separation by electrophoresis.)

Data set [10] has as its system SSc lung fibroblasts. The data set can be described thus: Western blot of secreted COL1A1 and COL3A1, SSc lung fibroblasts. Format: cell-based, human. Conditions: 48 h. The procedure: as §1, §5
Data set [11] relates to SSc dermal myofibroblasts. The data set can be described thus: Immunofluorescence of α-SMA and f-actin in SSc dermal myofibroblasts. Format: cell-based, human. Conditions: 48 h. The procedure:
SSc dermal fibroblasts were cultured in chamber slides to 80% confluency and treated with Z-YVAD(OMe)-FMK for 48 h, air dried then fixed with 4% paraformaldehyde for 20 min. Slides were washed with 1×PBS and blocked with 5% goat serum. Primary antibody to α-SMA (1:100, Clone #1A4, Abcam, Cambridge Mass.) and applied to the cells for 40 min, then washed in PBS. Cy2-conjugated goat-anti-mouse (1:200, Jackson ImmunoResearch, West Grove Pa.) was applied to the cells for 40 min, and then washed. Rhodamine phalloidin (1:100, Cytoskeleton, Denver Colo.) was applied to the cells for 15 min, then the cells were washed with PBS, counterstained with DaPI (Invitrogen), visualized with a Nikon Eclipse 80i epi-fluorescent microscope, and photographed at 400× magnification. All images (red for f-actin, green for α-SMA, and triple for simultaneous detection of f-actin, α-SMA and nuclei) were captured at 6 sec, Gain=2, Gamma=0.5.

The test system of data set [12] is SSc dermal fibroblasts. The data set can be described thus: Western blot of α-SMA in SSc dermal fibroblasts. Type of data set: cell-based, human. Conditions: 48 h. The procedure:
30 μl of media was size fractionated on a 5% SDS polyacrylamide gel (Invitrogen, Carlsbad Calif.) and the proteins transferred to a PVDF membrane (Invitrogen). Non-specific binding sites were blocked and then probed with rabbit-anti-human COL1A1, COL3A1, or α-SMA (Santa Cruz Biotechnologies, Santa Cruz Calif.) overnight at 4° C. The membrane was washed and incubated with goat anti-rabbit-HRP (1:5000) (Jackson Immunoresearch, West Grove Pa.). The HRP signal was developed with SuperSignal Chemiluminescent Substrate (Pierce). The intensity of the bands was measured by ImageJ (http://rsbweb dot nih dot gov/ij/).
80% confluent fibroblasts were cultured in serum free Opti-MEM and transfected with siRNA targeting caspase-1 (Santa Cruz) for 48 h, with an additional transfection of the siRNA duplex after 24 h. Cells were harvested for protein for Western blotting and the media was saved for hydroxyproline and IL-1β and IL-18 measurements and cells were lysed for α-SMA detection.

Data set [13] deals with mouse dermal fibroblasts. The data set is described as follows: Hydroxyproline secretion by mouse dermal fibroblasts stimulated with bleomycin. Conditions: for hydroxyproline secreted: 48 h. Type of data set: cell-based. The procedure:
as §1, §4

The test system of data set [14] is fibroblasts. Format: cell-based. The procedure:
as §1

Data set [15] deals with other members of the interleukin-1 family, including interleukin-1 alpha. Conditions: cited from earlier work.
Data set [16] concerns mouse models of acute gout. The conditions noted are these: in vivo; cited from earlier work.
Data set [17] relates to C57Bl/6, NLRP3−/− and ASC−/− mice. The data set is described as follows: Murine bleomycin-induced model of fibrosis (skin thickness, lung pathology). Type of data set: in vivo, mouse. How it is done: All animals were housed in the University Laboratory Animal facility and fed ad libitum. Pathogen free C57Bl/6 mice (n=7) were purchased from Jackson Laboratories. […] Seven untreated C57BL/6 mice were assessed for skin thickness and lung pathology. Dermal fibrosis was induced by daily subcutaneous administration of 100 μl of a 1 mg/ml of bleomycin (BioMol, Plymouth Meeting Pa.) in the flank for 28 days. At the same time 100 μl sterile PBS was administered by subcutaneous injection in the contralateral flank of the same mouse according to the method of Yamamoto et al. (Yamamoto et al., 1999, J Invest Dermatol 112:456-62). Mice were euthanized and tissue from both injection sites was harvested, along with lung tissue. Tissues were fixed, embedded in paraffin, and sectioned onto positively charged slides, then stained with Masson's Trichrome and photographed. Collagen was measured in the skin from just below the epidermis to the fat layer. Two images were taken at 100× magnification. Six measurements were taken for each image using the Advanced SpotCam software and expressed as skin thickness in microns±SEM and fold change in skin thickness.

As for `COc1ccc(Cl)cc1C(=O)NCCc1ccc(S(=O)(=O)NC(=O)NC2CCCCC2)cc1` [Glyburide, 5-chloro-N-(4-[N-(cyclohexylcarbamoyl)sulfamoyl]phenethyl)-2-methoxybenzamide], in data set [1], the “hydroxyproline secretion by SSc fibroblasts” value is “significantly reduce”.

Take `CSc1ccc(-c2nn(Cc3ccccc3)c(=O)cc2-c2ccc(Cl)cc2)cc1` [K-832, 2-benzyl-5-(4-chlorophenyl)-6-[4-(methylthio)phenyl]-2H-pyridazin-3-one]: the “inhibitory activity against production of interleukin-1β” value in [2] is reported as “high inhibitory activity”.

As for `COC(=O)C[C@H](NC(=O)[C@H](C)NC(=O)[C@@H](NC(=O)[C@H](Cc1ccc(O)cc1)NC(=O)OCc1ccccc1)C(C)C)C(=O)CF` [Z-YVAD(OMe)-FMK, Benzyloxycarbonyl-Tyr-Val-Ala-Asp(OMe)-fluoromethylketone], the IL-1β secreted in data set [3] was determined as 12.0 ± 1.6 pg/mL; in [3] (listed as YVAD) it was 12.0 pg/mL; in data set [4], 7.2 ± 0.2 pg/mL. In addition, the IL-18 secreted in data set [5] came to 15.2 ± 1.5 pg/mL; in data set [6] it was 311.6 ± 18.5 pg/mL. For the same compound, the hydroxyproline secreted is 5.19 ± 0.94 µg/mL in data set [7]; 132.0 ± 22.8 µg/mL in data set [8]; 5.9 ± 0.7 µg/mL in data set [13] (C57BL/6 fibroblasts, 1 μM bleomycin plus 20 μM inhibitor). Moreover, the “Secreted COL1A1 protein (densitometry)” value in [9] (untreated 11.4±1.3 AU) stood at 8.9±1.0 AU. Moreover, the “COL3A1 protein (densitometry)” value was 8.6±2.5 AU in data set [9] (untreated 14.7±3.1 AU) and 5.5±1.2 AU in [10] (untreated 12.3±3.8 AU). In data set [10] (p=0.051), the “COL1A1 secretion” value is “trend for the reduction”. Also, the “F-actin MFI” value in [11] (SSc dermal cells, untreated 37.8±3.09) is recorded as 39.6±2.9 MFI. Further, the “F-actin staining” value in [11] (SSc dermal myofibroblasts) is given as “unaffected”. Also, in [11] (SSc dermal myofibroblasts, untreated 1.03±0.05), the “Mean fluorescent intensity (MFI) of α-SMA after correction for f-actin MFI” value is given as 0.68±0.04. The “Mean fluorescent intensity of α-SMA” value in data set [11] (SSc dermal myofibroblasts, untreated 38.9±2.4) is 27.6±2.5. Moreover, in data set [12] (after normalization for β-actin), the “Decrease of α-smooth muscle actin by Western” value was “approximately 50%”. For the same compound, the “α-SMA protein by Western, normalized for β-actin loading” value in data set [12] (untreated 1.07±0.15) came out at 0.54±0.14. The “apoptosis” value in data set [14] is “did not interfere with cell proliferation or induce apoptosis”.

With “Canakinumab: a human monoclonal antibody targeted at interleukin-1 beta”, in [15], the “cross-reactivity with other members of the interleukin-1 family” value is “no cross-reactivity”.

For “XOMA-052: a potent anti-IL-1β humanized neutralizing antibody”, the “activity in mouse models of acute gout” value in [16] is reported as “active”.

For bleomycin, the “hydroxyproline secretion” value in [13] (ASC−/− and NLRP3−/− fibroblasts, 1 μM bleomycin, p>0.43) was “not induced”. The compound further yielded a hydroxyproline secreted in [13] (C57BL/6 fibroblasts stimulated with 1 μM bleomycin, unstimulated 10.6±3.8) of 42.8 ± 2.9 µg/mL. Also, the “fold induction of skin thickness” value in data set [17] (ASC−/− mice, bleomycin vs PBS injected skin) stood at 1.06 fold; in [17] (NLRP3−/− mice, bleomycin vs PBS injected skin), 1.10 fold. Besides, the average skin thickness in [17] (C57Bl/6 mice, bleomycin 100 μg daily s.c. 28 days, PBS injected skin 320.7±40.6) was determined as 504.4±66.7 microns. Moreover, in data set [17] (C57Bl/6 mice, bleomycin vs PBS injected skin), the “fold increase in skin thickness” value is reported as 1.54±0.11 fold. Besides, in data set [17] (wild-type C57Bl/6 mice, bleomycin s.c. 28 days), the “lung pathology” value was “developed extensive pulmonary fibrosis”.

(Values after US20140314746A1, “METHODS FOR TREATING OR PREVENTING FIBROSIS IN SUBJECTS AFFLICTED WITH SCLERODERMA” (Philadelphia Health and Education Corporation, d/b/a Drexel …, priority 2013, published 2014).)
